Laboratory results published in ChEMBL document CHEMBL3045868, “Synthesis and antibacterial activities of para-alkoxy phenyl--ketoaldehyde derivatives” (Med Chem Res, 2013).

Legend:
Assay type in all cases: functional
Staphylococcus aureus [1] = assay: Antibacterial activity against Staphylococcus aureus clinical isolate 14 assessed as growth inhibition at pH 9 after 16 to 18 hr by NCCLS agar dilution method
Staphylococcus aureus [2] = assay: Antibacterial activity against Staphylococcus aureus clinical isolate 12 assessed as growth inhibition at pH 9 after 16 to 18 hr by NCCLS agar dilution method
Staphylococcus aureus [3] = assay: Antibacterial activity against Staphylococcus aureus clinical isolate 8 assessed as growth inhibition at pH 9 after 16 to 18 hr by NCCLS agar dilution method
Staphylococcus aureus [4] = assay: Antibacterial activity against Staphylococcus aureus clinical isolate 5 assessed as growth inhibition at pH 7 after 16 to 18 hr by NCCLS agar dilution method
Staphylococcus aureus [5] = assay: Antibacterial activity against Staphylococcus aureus clinical isolate 3 assessed as growth inhibition at pH 7 after 16 to 18 hr by NCCLS agar dilution method
Staphylococcus aureus [6] = assay: Bactericidal activity against Staphylococcus aureus clinical isolate 6 after 24 hr; settings: isolate 6, 24 h
Staphylococcus aureus [7] = assay: Antibacterial activity against Staphylococcus aureus clinical isolate 21 assessed as growth inhibition at pH 5 after 16 to 18 hr by NCCLS agar dilution method
Staphylococcus aureus [8] = assay: Antibacterial activity against Staphylococcus aureus clinical isolate 23 assessed as growth inhibition at pH 7 after 16 to 18 hr by NCCLS agar dilution method
Staphylococcus aureus [9] = assay: Antibacterial activity against Staphylococcus aureus clinical isolate 18 assessed as growth inhibition at pH 7 after 16 to 18 hr by NCCLS agar dilution method
Staphylococcus aureus [10] = assay: Antibacterial activity against Staphylococcus aureus clinical isolate 17 assessed as growth inhibition at pH 7 after 16 to 18 hr by NCCLS agar dilution method
Staphylococcus aureus [11] = assay: Antibacterial activity against Staphylococcus aureus clinical isolate 16 assessed as growth inhibition at pH 7 after 16 to 18 hr by NCCLS agar dilution method
Staphylococcus aureus [12] = assay: Antibacterial activity against Staphylococcus aureus clinical isolate 14 assessed as growth inhibition at pH 7 after 16 to 18 hr by NCCLS agar dilution method
Staphylococcus aureus [13] = assay: Antibacterial activity against Staphylococcus aureus clinical isolate 12 assessed as growth inhibition at pH 7 after 16 to 18 hr by NCCLS agar dilution method
Staphylococcus aureus [14] = assay: Antibacterial activity against Staphylococcus aureus clinical isolate 10 assessed as growth inhibition at pH 7 after 16 to 18 hr by NCCLS agar dilution method
Staphylococcus aureus [15] = assay: Antibacterial activity against Staphylococcus aureus clinical isolate 11 assessed as growth inhibition at pH 5 after 16 to 18 hr by NCCLS agar dilution method
Staphylococcus aureus [16] = assay: Antibacterial activity against Staphylococcus aureus clinical isolate 10 assessed as growth inhibition at pH 5 after 16 to 18 hr by NCCLS agar dilution method
Staphylococcus aureus [17] = assay: Antibacterial activity against Staphylococcus aureus clinical isolate 8 assessed as growth inhibition at pH 5 after 16 to 18 hr by NCCLS agar dilution method
Staphylococcus aureus [18] = assay: Antibacterial activity against Staphylococcus aureus clinical isolate 7 assessed as growth inhibition at pH 5 after 16 to 18 hr by NCCLS agar dilution method
Staphylococcus aureus [19] = assay: Antibacterial activity against Staphylococcus aureus clinical isolate assessed as growth inhibition at pH 5 after 16 to 18 hr by NCCLS agar dilution method
Staphylococcus aureus [20] = assay: Antibacterial activity against Staphylococcus aureus clinical isolate 23 assessed as growth inhibition at pH 9 after 16 to 18 hr by NCCLS agar dilution method
Staphylococcus aureus [21] = assay: Antibacterial activity against Staphylococcus aureus clinical isolate 20 assessed as growth inhibition at pH 9 after 16 to 18 hr by NCCLS agar dilution method
Staphylococcus aureus [22] = assay: Antibacterial activity against Staphylococcus aureus clinical isolate 16 assessed as growth inhibition at pH 9 after 16 to 18 hr by NCCLS agar dilution method
Staphylococcus aureus [23] = assay: Antibacterial activity against Staphylococcus aureus clinical isolate 15 assessed as growth inhibition at pH 9 after 16 to 18 hr by NCCLS agar dilution method
Staphylococcus aureus [24] = assay: Antibacterial activity against Staphylococcus aureus clinical isolate 5 assessed as growth inhibition after 16 to 18 hr by NCCLS agar dilution method
Staphylococcus aureus [25] = assay: Antibacterial activity against Staphylococcus aureus clinical isolate 4 assessed as growth inhibition after 16 to 18 hr by NCCLS agar dilution method
Staphylococcus aureus [26] = assay: Antibacterial activity against Staphylococcus aureus clinical isolate 3 assessed as growth inhibition after 16 to 18 hr by NCCLS agar dilution method
Staphylococcus aureus [27] = assay: Antibacterial activity against Staphylococcus aureus clinical isolate 1 assessed as growth inhibition after 16 to 18 hr by NCCLS agar dilution method
Staphylococcus aureus [28] = assay: Antibacterial activity against Staphylococcus aureus clinical isolate 3 assessed as growth inhibition at pH 9 after 16 to 18 hr by NCCLS agar dilution method
Staphylococcus aureus [29] = assay: Antibacterial activity against Staphylococcus aureus clinical isolate 2 assessed as growth inhibition at pH 9 after 16 to 18 hr by NCCLS agar dilution method
Helicobacter pylori [30] = assay: Antibacterial activity against Helicobacter pylori 05-14 assessed as growth inhibition after 16 to 18 hr NCCLS agar dilution method
Helicobacter pylori [31] = assay: Antibacterial activity against Helicobacter pylori 05-5 assessed as growth inhibition after 16 to 18 hr NCCLS agar dilution method
Helicobacter pylori [32] = assay: Antibacterial activity against Helicobacter pylori 05-1 assessed as growth inhibition after 16 to 18 hr NCCLS agar dilution method
Helicobacter pylori [33] = assay: Antibacterial activity against Helicobacter pylori ATCC 11637 assessed as growth inhibition after 16 to 18 hr NCCLS agar dilution method
Helicobacter pylori [34] = assay: Antibacterial activity against Helicobacter pylori 06-4 assessed as growth inhibition after 16 to 18 hr NCCLS agar dilution method
Helicobacter pylori [35] = assay: Antibacterial activity against Helicobacter pylori 06-3 assessed as growth inhibition after 16 to 18 hr NCCLS agar dilution method
Helicobacter pylori [36] = assay: Antibacterial activity against Helicobacter pylori 05-3 assessed as growth inhibition after 16 to 18 hr NCCLS agar dilution method
Staphylococcus aureus [37] = assay: Antibacterial activity against Staphylococcus aureus clinical isolate 19 assessed as growth inhibition at pH 5 after 16 to 18 hr by NCCLS agar dilution method
Staphylococcus aureus [38] = assay: Antibacterial activity against Staphylococcus aureus clinical isolate 15 assessed as growth inhibition at pH 5 after 16 to 18 hr by NCCLS agar dilution method
Staphylococcus aureus [39] = assay: Antibacterial activity against Staphylococcus aureus clinical isolate 6 assessed as growth inhibition at pH 5 after 16 to 18 hr by NCCLS agar dilution method
Staphylococcus aureus [40] = assay: Antibacterial activity against Staphylococcus aureus clinical isolate 3 assessed as growth inhibition at pH 5 after 16 to 18 hr by NCCLS agar dilution method
Staphylococcus aureus [41] = assay: Bactericidal activity against methicillin-resistant Staphylococcus aureus after 24 hr
Staphylococcus aureus [42] = assay: Antibacterial activity against methicillin-resistant Staphylococcus aureus assessed as growth inhibition after 16 to 18 hr by NCCLS agar dilution method

CO/N=C/CC(=O)c1ccc(OC)cc1
8 µg/mL: MIC (Staphylococcus aureus [1]) | MIC (Staphylococcus aureus [2]) | MIC (Staphylococcus aureus [3]) | MIC (Staphylococcus aureus [11]) | MIC (Staphylococcus aureus [20]) | MIC (Staphylococcus aureus [21]) | MIC (Staphylococcus aureus [22]) | MIC (Staphylococcus aureus [23]) | MIC (Staphylococcus aureus [24]) | MIC (Staphylococcus aureus [26]) | MIC (Staphylococcus aureus [28]) | MIC (Staphylococcus aureus [29]) | MIC50 (Staphylococcus aureus [42]) | MIC90 (Staphylococcus aureus [42])
32 µg/mL: MIC (Staphylococcus aureus [7]) | MIC (Staphylococcus aureus [13]) | MIC (Staphylococcus aureus [14]) | MIC (Staphylococcus aureus [15]) | MIC (Staphylococcus aureus [17]) | MIC50 (Staphylococcus aureus [19]) | MIC (Helicobacter pylori [31]) | MIC (Helicobacter pylori [32]) | MIC (Helicobacter pylori [33]) | MIC (Helicobacter pylori [34]) | MIC (Helicobacter pylori [35]) | MIC (Staphylococcus aureus [40])
256 µg/mL: MBC50 (Staphylococcus aureus [41]) | MBC90 (Staphylococcus aureus [41])
64 µg/mL: MBC (Staphylococcus aureus [6]) | MIC90 (Staphylococcus aureus [19]) | MIC (Staphylococcus aureus [39])
16 µg/mL: MIC (Staphylococcus aureus [4]) | MIC (Staphylococcus aureus [5]) | MIC (Staphylococcus aureus [8]) | MIC (Staphylococcus aureus [9]) | MIC (Staphylococcus aureus [10]) | MIC (Staphylococcus aureus [12]) | MIC (Staphylococcus aureus [16]) | MIC (Staphylococcus aureus [18]) | MIC (Staphylococcus aureus [25]) | MIC (Staphylococcus aureus [27]) | MIC (Helicobacter pylori [30]) | MIC (Helicobacter pylori [36]) | MIC (Staphylococcus aureus [37]) | MIC (Staphylococcus aureus [38])
